Experimental data: patent US12097202B2 (Kadmon Corporation, LLC, priority 2022, dated 2024)

How the values were obtained:
pregnant rabbits = details: female, rabbit, in vivo, po
rat bone marrow = test: in vivo rat bone marrow micronucleus assay
rats = test: Combined male and female rat fertility study; assay type: in vivo; details: oral
From the text: In a combined male and female rat fertility study, belumosudil-treated male animals were mated with untreated females, or untreated males were mated with belumosudil-treated females.

[1] = Clinical pharmacokinetics in chronic GVHD patients; assay type: in vivo, human
[2] = system: patients with chronic GVHD; test: Pooled adverse reactions and laboratory abnormalities, 83 adult chronic GVHD patients on 200 mg once daily (KD025-213 and KD025-208); assay type: in vivo, human; details: for Alanine Aminotransferase Increased / Alkaline Phosphatase Increased / Calcium Decreased / Creatinine Increased / Gamma Glutamyl Transferase Increased / Hemoglobin Decreased / Lymphocytes Decreased / Neutrophil Count Decreased / Phosphate Decreased / Platelets Decreased / Potassium Increased: Grade 0-1 Baseline
From the text: The median duration of treatment was 9.2 months (range 0.5 to 44.7 months).

BCRP = biological target: T1, BCRP (Homo sapiens, UniProt Q9UNQ0); test: In vitro transporter study, BCRP; assay type: in vitro ADME; details: at clinically relevant concentrations
T1 sequence (Q9UNQ0 1-655): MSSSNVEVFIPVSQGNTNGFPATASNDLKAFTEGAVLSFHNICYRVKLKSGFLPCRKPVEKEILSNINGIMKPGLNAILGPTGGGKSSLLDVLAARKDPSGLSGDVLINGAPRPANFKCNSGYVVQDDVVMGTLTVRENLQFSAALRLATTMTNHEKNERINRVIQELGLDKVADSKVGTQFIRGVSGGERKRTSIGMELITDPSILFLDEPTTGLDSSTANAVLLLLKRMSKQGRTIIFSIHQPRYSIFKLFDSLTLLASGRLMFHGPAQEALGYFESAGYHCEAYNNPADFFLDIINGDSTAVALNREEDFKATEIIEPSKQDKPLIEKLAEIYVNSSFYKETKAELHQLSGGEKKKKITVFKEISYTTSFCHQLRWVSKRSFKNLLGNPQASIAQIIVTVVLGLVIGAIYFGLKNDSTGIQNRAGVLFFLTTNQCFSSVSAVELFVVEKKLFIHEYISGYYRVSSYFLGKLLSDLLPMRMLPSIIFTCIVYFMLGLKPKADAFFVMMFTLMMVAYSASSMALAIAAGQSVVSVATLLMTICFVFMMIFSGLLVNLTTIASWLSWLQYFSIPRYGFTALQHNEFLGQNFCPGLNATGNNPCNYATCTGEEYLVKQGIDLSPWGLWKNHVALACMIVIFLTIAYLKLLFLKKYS

[3] = system: human peripheral blood lymphocytes (HPBL); test: in vitro chromosome aberration assay; assay type: cell-based
UGT1A1 = biological target: T2, UGT1A1 (Homo sapiens, UniProt P22309); test: In vitro enzyme inhibition, UGT1A1; assay type: in vitro ADME
T2 sequence (P22309 26-533): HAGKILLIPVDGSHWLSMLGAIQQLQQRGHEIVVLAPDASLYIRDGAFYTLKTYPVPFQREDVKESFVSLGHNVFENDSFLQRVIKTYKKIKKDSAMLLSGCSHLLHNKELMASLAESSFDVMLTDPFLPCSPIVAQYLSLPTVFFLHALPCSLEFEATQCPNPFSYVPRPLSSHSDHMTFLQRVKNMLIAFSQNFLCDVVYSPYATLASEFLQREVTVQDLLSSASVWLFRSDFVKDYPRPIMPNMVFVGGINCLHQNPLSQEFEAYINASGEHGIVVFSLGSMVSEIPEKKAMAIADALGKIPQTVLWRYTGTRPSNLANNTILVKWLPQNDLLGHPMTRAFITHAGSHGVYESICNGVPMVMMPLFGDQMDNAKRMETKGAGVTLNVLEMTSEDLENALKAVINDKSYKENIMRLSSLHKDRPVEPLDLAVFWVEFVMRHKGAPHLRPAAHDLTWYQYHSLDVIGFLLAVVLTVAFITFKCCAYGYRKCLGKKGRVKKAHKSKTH

SMILES: CC(C)NC(=O)COc1cccc(-c2nc(Nc3ccc4[nH]ncc4c3)c3ccccc3n2)c1 [belumosudil, 2-{3-[4-(1H-indazol-5-ylamino)-2-quinazolinyl]phenoxy}-N-(propan-2-yl) acetamide]
- doses at which embryo-fetal effects were observed (pregnant rabbits): ≥ 50 mg/kg/day
- doses at which maternal toxicity (body weight loss and mortality) was observed (pregnant rabbits): ≥ 125 mg/kg/day
- genotoxicity, bone marrow micronucleus assay (rat bone marrow): not genotoxic
- dose with adverse fertility findings (pre- or post-implantation loss, fewer viable embryos, abnormal sperm, testes/epididymis changes, reduced fertility) (rats): 275 mg/kg/day
- increase of Cmax and AUC with dose ([1]; dosage range of 200 and 400 mg): approximately proportional
- effect of age (18 to 77 years), sex, weight (38.6 to 143 kg), mild to moderate renal impairment on pharmacokinetics ([1]; human, in vivo): No clinically significant differences
- Alanine Aminotransferase Increased ([2]; Grade 2-4 Max Post): 7%
- Alkaline Phosphatase Increased ([2]; Grade 2-4 Max Post): 9%
- Calcium Decreased ([2]; Grade 2-4 Max Post): 12%
- Creatinine Increased ([2]; Grade 2-4 Max Post): 4%
- Gamma Glutamyl Transferase Increased ([2]; Grade 2-4 Max Post): 21%
- Hemoglobin Decreased ([2]; Grade 2-4 Max Post): 11%
- Lymphocytes Decreased ([2]; Grade 2-4 Max Post): 29%
- Neutrophil Count Decreased ([2]; Grade 2-4 Max Post): 8%
- Phosphate Decreased ([2]; Grade 2-4 Max Post): 28%
- Platelets Decreased ([2]; Grade 2-4 Max Post): 10%
- Potassium Increased ([2]; Grade 2-4 Max Post): 7%
- Alanine Aminotransferase Increased ([2]; Grade 3-4 Max Post): 2%
- Alkaline Phosphatase Increased ([2]; Grade 3-4 Max Post): 0%
- Calcium Decreased ([2]; Grade 3-4 Max Post): 1%
- Creatinine Increased ([2]; Grade 3-4 Max Post): 0%
- Gamma Glutamyl Transferase Increased ([2]; Grade 3-4 Max Post): 11%
- Hemoglobin Decreased ([2]; Grade 3-4 Max Post): 1%
- Lymphocytes Decreased ([2]; Grade 3-4 Max Post): 13%
- Neutrophil Count Decreased ([2]; Grade 3-4 Max Post): 4%
- Phosphate Decreased ([2]; Grade 3-4 Max Post): 7%
- Platelets Decreased ([2]; Grade 3-4 Max Post): 5%
- Potassium Increased ([2]; Grade 3-4 Max Post): 1%
- Abdominal pain, All Grades ([2]; N=83): 22%
- Abdominal pain, Grades 3-4 ([2]; N=83): 1%
- Arthralgia, All Grades ([2]; N=83): 15%
- Arthralgia, Grades 3-4 ([2]; N=83): 2%
- Asthenia, All Grades ([2]; N=83): 46%
- Asthenia, Grades 3-4 ([2]; N=83): 4%
- Bacterial infection, All Grades ([2]; N=83): 16%
- Bacterial infection, Grades 3-4 ([2]; N=83): 4%
- Cough, All Grades ([2]; N=83): 30%
- Cough, Grades 3-4 ([2]; N=83): 0%
- Decreased appetite, All Grades ([2]; N=83): 17%
- Decreased appetite, Grades 3-4 ([2]; N=83): 1%
- Diarrhea, All Grades ([2]; N=83): 35%
- Diarrhea, Grades 3-4 ([2]; N=83): 5%
- Dysphagia, All Grades ([2]; N=83): 16%
- Dysphagia, Grades 3-4 ([2]; N=83): 0%
- Dyspnea, All Grades ([2]; N=83): 33%
- Dyspnea, Grades 3-4 ([2]; N=83): 5%
- Edema, All Grades ([2]; N=83): 27%
- Edema, Grades 3-4 ([2]; N=83): 1%
- Headache, All Grades ([2]; N=83): 21%
- Headache, Grades 3-4 ([2]; N=83): 0%
- Hemorrhage, All Grades ([2]; N=83): 23%
- Hemorrhage, Grades 3-4 ([2]; N=83): 5%
- Hypertension, All Grades ([2]; N=83): 21%
- Hypertension, Grades 3-4 ([2]; N=83): 7%
- Infection (pathogen not specified), All Grades ([2]; N=83): 53%
- Infection (pathogen not specified), Grades 3-4 ([2]; N=83): 16%
- Muscle spasm, All Grades ([2]; N=83): 17%
- Muscle spasm, Grades 3-4 ([2]; N=83): 0%
- Musculoskeletal pain, All Grades ([2]; N=83): 22%
- Musculoskeletal pain, Grades 3-4 ([2]; N=83): 4%
- Nausea (includes vomiting), All Grades ([2]; N=83): 42%
- Nausea (includes vomiting), Grades 3-4 ([2]; N=83): 4%
- Pruritus, All Grades ([2]; N=83): 11%
- Pruritus, Grades 3-4 ([2]; N=83): 0%
- Pyrexia, All Grades ([2]; N=83): 18%
- Pyrexia, Grades 3-4 ([2]; N=83): 1%
- Rash, All Grades ([2]; N=83): 12%
- Rash, Grades 3-4 ([2]; N=83): 0%
- Viral infection, All Grades ([2]; N=83): 19%
- Viral infection, Grades 3-4 ([2]; N=83): 4%
- adverse reactions leading to dose interruption ([2]; N=83): 29%
- dose interruption due to asthenia, dyspnea, hemorrhage, hypotension, liver function test abnormal, nausea, pyrexia, edema, renal failure (each) ([2]; N=83): 2%
- dose interruption due to diarrhea ([2]; N=83): 4%
- dose interruption due to infections ([2]; N=83): 11%
- permanent discontinuation due to adverse reactions ([2]; N=83): 18%
- permanent discontinuation due to nausea ([2]; N=83): 4%
- inhibition of BCRP (BCRP): inhibits
- genotoxicity, chromosome aberration assay [3]: not genotoxic
- inhibition of UGT1A1 (UGT1A1): inhibitor
